# From publication PMC5285354, “Cationic Net Charge and Counter Ion Type as Antimicrobial Activity Determinant Factors of Short Lipopeptides” (Frontiers in Microbiology, 2017)
# Read-outs that look alike come from different tables or passages of the source. Where a SMILES comes first, the peptide text is derived from it. The star is where a group is joined. Lauroyl = CCCCCCCCCCCC(=O)*; Decanoyl = CCCCCCCCCC(=O)*
# Legend:
# Format in all cases: cell-based
# [1] = tested on: Pseudomonas aeruginosa (ATCC 9027); conditions: ATCC 9027, 24 h
# [2] = tested on: Candida albicans (ATCC 10231); conditions: ATCC 10231, 48 h
# Method: (§1) The minimum inhibitory concentration (MIC), minimum bactericidal concentration (MBC) and minimum fungicidal concentration (MFC) were determined according to the procedure recommended by the Clinical Laboratory Standards Institute (CLSI). The following reference strains were tested: Gram-negative E. coli (ATCC 25922), K. pneumoniae (ATCC 700603), P. vulgaris (PCM 2668), P. aeruginosa (ATCC 9027), Gram-positive S. aureus (ATCC 25923), S. epidermidis (PCM 2118), B. subtilis (ATCC 6633), E. faecalis (ATCC 29212) and fungi C. albicans (ATCC 10231), C. tropicalis (PCM 2681), and A. brasiliensis (ATCC 16404). All the microorganisms were from the Polish Collection of Microorganisms (Wroclaw, Poland). MIC was determined using a microbroth dilution method with Mueller-Hinton (MH) broth for bacteria and Sabouraud Dextrose broth for fungi (Becton Dickinson, Le Pont de Claix, France). An initial inoculum of 10^5 cfu/mL was used for bacteria and 10^3 cfu/mL for fungi. Polypropylene 96-well plates (Kartell, Noviglio, Italy) were incubated for 18 h at 37°C for bacteria and for 48 h at 25°C for the tested fungi. MIC (μg/mL) was taken as the lowest concentration of the lipopeptide, at which the observable growth was inhibited. […] The experiments were performed in triplicate on three different days.
# [3] = tested on: Enterococcus faecalis (ATCC 29212)
# Method: as §1
# [4] = tested on: Aspergillus brasiliensis (ATCC 16404); conditions: ATCC 16404, 48 h
# Method: as §1
# [5] = tested on: Staphylococcus aureus (ATCC 25923)
# Method: as §1
# [6] = tested on: Escherichia coli (ATCC 25922)
# Method: as §1
# [7] = tested on: Staphylococcus epidermidis (PCM 2118); conditions: for MIC Staphylococcus epidermidis: PCM 2118, 18 h; for MBC Staphylococcus epidermidis: PCM 2118, 24 h
# Method: as §1
# [8] = tested on: Candida tropicalis (PCM 2681); conditions: PCM 2681, 48 h
# Method: as §1
# [9] = tested on: Proteus vulgaris (PCM 2668); conditions: PCM 2668, TFA salt, triplicate; for MIC Proteus vulgaris: Mueller-Hinton broth, 10^5 cfu/mL, 18 h 37°C; for MBC Proteus vulgaris: subculture on Mueller-Hinton II Agar, 24 h 37°C
# Method: as §1
# [10] = tested on: Bacillus subtilis (ATCC 6633); conditions: for MIC Bacillus subtillis: ATCC 6633, 18 h; for MBC Bacillus subtillis: ATCC 6633, 24 h
# Method: as §1
# [11] = tested on: Klebsiella pneumoniae (ATCC 700603)
# Method: as §1
# [12] = tested on: Pseudomonas aeruginosa (ATCC 9027); conditions: ATCC 9027, 18 h
# Method: as §1
# human red blood cells = conditions: 1 h
# Method: The hemolytic activity of the lipopeptides was determined by exposing human red blood cells (4% v/v) to tested compounds at graded concentrations. Red blood cells were obtained from a healthy donor. EDTA was used to prevent the blood clotting. The plasma was removed via centrifugation and the erythrocytes were washed three times with PBS. The red blood cells were suspended in PBS and incubated with different concentrations of lipopeptides at 37°C for 1 h and centrifuged for 5 min at 1000 × g. The supernatants were transferred to a sterile 96-well plate and hemoglobin release was measured with an Epoch microplate spectrophotometer (BioTek, USA) by recording the absorbance at 550 nm. A 0.1% Triton X-100 solution was used as the positive control (100% of hemolysis) and pure PBS as the negative (0% of hemolysis). Minimum hemolytic concentration (MHC) was taken as the lowest concentration which induced 10% of hemolysis.
# [13] = ATCC 29212, TFA salt, subculture on Mueller-Hinton II Agar, 24 h 37°C, triplicate
# [14] = ATCC 25923, TFA salt, MIC wells subcultured on Mueller-Hinton II Agar, 24 h 37°C, triplicate
# [15] = ATCC 25923, TFA salt, Mueller-Hinton broth, 10^5 cfu/mL, 18 h 37°C, triplicate on three days
# [16] = ATCC 25922, TFA salt, Mueller-Hinton broth, 10^5 cfu/mL, 18 h 37°C, triplicate
# [17] = ATCC 25922, TFA salt, subculture on Mueller-Hinton II Agar, 24 h 37°C, triplicate
Compound,MBC Pseudomonas aeruginosa [1],MFC Candida albicans [2],MIC Candida albicans [2],"MIC Enterococcus fecalis ([3]; ATCC 29212, 18 h)",MFC Aspergillus brasiliensis [4],MIC Aspergillus brasiliensis [4],MIC Staphylococcus epidermidis [7],MBC Staphylococcus epidermidis [7],MFC Candida tropicalis [8],MIC Candida tropicalis [8],MIC Proteus vulgaris [9],MBC Proteus vulgaris [9],MIC Bacillus subtillis [10],MBC Bacillus subtillis [10],"MIC Klebsiella pneumoniae ([11]; ATCC 700603, 18 h)","MBC Klebsiella pneumoniae ([11]; ATCC 700603, 24 h)",MIC Pseudomonas aeruginosa [12],"Hemolysis HC10 (MHC), concentration of lipopeptide inducing 10% of hemolysis (human red blood cells)","MBC Staphylococcus aureus ([5]; ATCC 25923, 24 h)","MBC Escherichia coli ([6]; ATCC 25922, 24 h)",also measured
CCCCCCCCCC(=O)N[C@@H](CCCCN)C(=O)NCC(=O)N[C@@H](CCCCN)C(=O)NCC(N)=O [C10-KGKG-NH2] (Decanoyl-KGKG-NH2),2000 mg/L,2000 mg/L,1000 mg/L,2000 mg/L,2000 mg/L,1000 mg/L,512 mg/L,512 mg/L,2000 mg/L,512 mg/L,>2000 mg/L,>2000 mg/L,512 mg/L,1000 mg/L,2000 mg/L,2000 mg/L,1000 mg/L,–,–,–,"MBC Enterococcus fecalis [3, 13]: >2000 mg/L; MBC Staphylococcus aureus [5, 14]: >2000 mg/L; MIC Staphylococcus aureus [5, 15]: >2000 mg/L; MIC Escherichia coli [6, 16]: >2000 mg/L; MBC Escherichia coli [6, 17]: >2000 mg/L"
CCCCCCCCCC(=O)N[C@@H](CCCCN)C(=O)N[C@@H](CCCCN)C(N)=O [C10-KK-NH2],2000 mg/L,2000 mg/L,2000 mg/L,–,1000 mg/L,1000 mg/L,256 mg/L,512 mg/L,1000 mg/L,1000 mg/L,>2000 mg/L,>2000 mg/L,256 mg/L,512 mg/L,–,–,2000 mg/L,4000 µg/mL,–,–,"MIC Enterococcus fecalis ([3]; ATCC 29212, TFA salt, Mueller-Hinton broth, 10^5 cfu/mL, 18 h 37°C, triplicate): >2000 mg/L; MBC Enterococcus fecalis [3, 13]: >2000 mg/L; MBC Staphylococcus aureus [5, 14]: >2000 mg/L; MIC Staphylococcus aureus [5, 15]: >2000 mg/L; MIC Escherichia coli [6, 16]: >2000 mg/L; MBC Escherichia coli [6, 17]: >2000 mg/L; MIC Klebsiella pneumoniae ([11]; ATCC 700603, TFA salt, Mueller-Hinton broth, 10^5 cfu/mL, 18 h 37°C, triplicate): >2000 mg/L; MBC Klebsiella pneumoniae ([11]; ATCC 700603, TFA salt, subculture on Mueller-Hinton II Agar, 24 h 37°C, triplicate): >2000 mg/L"
CCCCCCCCCCCC(=O)N[C@@H](CCCCN)C(=O)NCC(=O)N[C@@H](CCCCN)C(N)=O [C12-KGK-NH2] (Lauroyl-Lys-Gly-Lys-NH2),1000 mg/L,2000 mg/L,2000 mg/L,–,2000 mg/L,1000 mg/L,64 mg/L,128 mg/L,2000 mg/L,2000 mg/L,>2000 mg/L,–,512 mg/L,1000 mg/L,–,1000 mg/L,1000 mg/L,1000 µg/mL,1000 mg/L,1000 mg/L,–
CCCCCCCCCCCC(=O)N[C@@H](CCCCN)C(=O)N[C@@H](CCCCN)C(N)=O [C12-KK-NH2],2000 mg/L,2000 mg/L,1000 mg/L,512 mg/L,2000 mg/L,2000 mg/L,64 mg/L,64 mg/L,2000 mg/L,1000 mg/L,>2000 mg/L,>2000 mg/L,64 mg/L,128 mg/L,2000 mg/L,2000 mg/L,2000 mg/L,–,2000 mg/L,2000 mg/L,"MBC Enterococcus fecalis ([3]; ATCC 29212, 24 h): 512 mg/L; MIC Staphylococcus aureus ([5]; ATCC 25923, 18 h): 2000 mg/L; MIC Escherichia coli ([6]; ATCC 25922, 18 h): 2000 mg/L"
CCCCCCCCCCCC(=O)N[C@@H](CCCCN)C(=O)N[C@@H](CCCCN)C(=O)N[C@@H](CCCCN)C(N)=O [C12-KKK-NH2],–,1000 mg/L,1000 mg/L,512 mg/L,512 mg/L,512 mg/L,64 mg/L,64 mg/L,1000 mg/L,1000 mg/L,>2000 mg/L,–,64 mg/L,128 mg/L,1000 mg/L,1000 mg/L,512 mg/L,512 µg/mL,1000 mg/L,1000 mg/L,"MBC Enterococcus fecalis ([3]; ATCC 29212, 24 h): 512 mg/L; MIC Staphylococcus aureus ([5]; ATCC 25923, 18 h): 1000 mg/L"
CCCCCCCCCCCC(=O)N[C@@H](CCCCN)C(=O)N[C@@H](CCCCN)C(=O)N[C@@H](CCCCN)C(=O)N[C@@H](CCCCN)C(N)=O [C12-KKKK-NH2] (Lauroyl-KKKK-NH2),–,256 mg/L,256 mg/L,512 mg/L,256 mg/L,128 mg/L,64 mg/L,64 mg/L,512 mg/L,256 mg/L,>2000 mg/L,–,128 mg/L,256 mg/L,–,1000 mg/L,–,1000 µg/mL,1000 mg/L,256 mg/L,"MBC Enterococcus fecalis ([3]; ATCC 29212, 24 h): 512 mg/L; MIC Staphylococcus aureus ([5]; ATCC 25923, 18 h): 1000 mg/L; MIC Escherichia coli ([6]; ATCC 25922, 18 h): 256 mg/L"
